Literature values as cited in US9828409B2, “Bridged-cyclo-ProTides as prodrugs of therapeutic nucleosides and nucleotides” (priority 2014, dated 2017).

Details: patients in clinical trials

- level of liver enzymes in patients: elevated level of liver enzymes
SMILES: CCOc1nc(N)nc2c1ncn2[C@@H]1O[C@@H]2COP(=O)(OC(C)C)O[C@H]2[C@@]1(C)F (stereo partly shown) [PSI-352938]
